Measured values taken from patent US11578061B2, “Inhibitors of LRRK2 kinase” (Halia Therapeutics, Inc., priority 2021, dated 2023).
pIC50: −log10 of the molar value.

The molecules below were run against recombinant human LRRK2 (catalytic domain only [amino acids 970-2527], GST-tagged) (Homo sapiens (Human), UniProt Q5S007) (assay: LRRK2 Enzymatic Assay). Conditions: LRRKtide substrate, [32P]-ATP.
Type: biochemical
In short: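 GST-tagged catalytic domain (aa 970-2527) at 30 nM with 20 μM LRRKtide in HEPES pH 7.5/MgCl2 buffer, 1% DMSO; compounds (10 μM to 0.5 nM) preincubated 20 min, then [32P]-ATP added for 2 h at room temperature. P81 phosphocellulose capture; activity as % of vehicle, IC50 by curve fit.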

recombinant human LRRK2 (catalytic domain only [amino acids 970-2527], GST-tagged), sequence (Q5S007 970-2527): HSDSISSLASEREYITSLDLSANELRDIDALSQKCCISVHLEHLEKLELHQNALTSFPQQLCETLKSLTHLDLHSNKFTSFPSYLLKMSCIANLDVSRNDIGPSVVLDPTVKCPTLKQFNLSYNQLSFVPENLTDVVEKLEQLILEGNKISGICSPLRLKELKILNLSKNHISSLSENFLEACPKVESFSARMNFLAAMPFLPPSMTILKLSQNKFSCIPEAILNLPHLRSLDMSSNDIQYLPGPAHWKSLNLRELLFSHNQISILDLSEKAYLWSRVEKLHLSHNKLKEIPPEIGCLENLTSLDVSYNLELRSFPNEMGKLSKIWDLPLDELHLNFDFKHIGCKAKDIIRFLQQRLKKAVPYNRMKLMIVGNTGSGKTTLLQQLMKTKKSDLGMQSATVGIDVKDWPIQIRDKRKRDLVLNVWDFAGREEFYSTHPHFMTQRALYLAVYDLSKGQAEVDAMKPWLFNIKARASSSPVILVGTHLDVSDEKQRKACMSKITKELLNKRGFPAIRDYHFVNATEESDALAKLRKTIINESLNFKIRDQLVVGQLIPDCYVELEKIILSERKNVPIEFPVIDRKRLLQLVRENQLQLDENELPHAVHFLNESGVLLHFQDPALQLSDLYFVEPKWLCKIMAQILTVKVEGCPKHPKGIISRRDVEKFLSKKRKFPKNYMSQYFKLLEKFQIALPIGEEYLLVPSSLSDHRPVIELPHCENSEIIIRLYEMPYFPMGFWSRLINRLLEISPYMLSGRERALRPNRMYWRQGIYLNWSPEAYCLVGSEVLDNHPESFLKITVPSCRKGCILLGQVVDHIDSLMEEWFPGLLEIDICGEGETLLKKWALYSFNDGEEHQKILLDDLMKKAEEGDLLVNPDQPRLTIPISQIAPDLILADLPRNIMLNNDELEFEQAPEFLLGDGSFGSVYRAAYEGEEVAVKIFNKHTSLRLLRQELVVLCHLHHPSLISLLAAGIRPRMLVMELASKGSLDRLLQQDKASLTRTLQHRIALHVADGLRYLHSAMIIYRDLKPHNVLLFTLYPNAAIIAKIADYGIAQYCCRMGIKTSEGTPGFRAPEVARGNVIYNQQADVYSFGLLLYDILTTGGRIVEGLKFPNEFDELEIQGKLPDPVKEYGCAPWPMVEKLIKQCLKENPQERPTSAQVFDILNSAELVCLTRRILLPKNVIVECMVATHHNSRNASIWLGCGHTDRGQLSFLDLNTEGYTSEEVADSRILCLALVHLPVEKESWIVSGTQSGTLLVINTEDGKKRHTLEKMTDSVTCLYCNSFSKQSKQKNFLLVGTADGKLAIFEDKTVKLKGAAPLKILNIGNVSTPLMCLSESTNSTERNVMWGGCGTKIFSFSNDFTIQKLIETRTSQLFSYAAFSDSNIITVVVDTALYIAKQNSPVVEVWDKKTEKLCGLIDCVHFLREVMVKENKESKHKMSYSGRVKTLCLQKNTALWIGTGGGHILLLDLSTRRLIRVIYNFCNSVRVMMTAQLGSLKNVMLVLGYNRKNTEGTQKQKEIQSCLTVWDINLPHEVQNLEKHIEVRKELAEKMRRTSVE

SMILES | pIC50
CC(=O)NC12CCC(COc3ccnc(Nc4ccc(N5CCOCC5)cc4)n3)(CC1)CC2 [Example 77, N-(4-(((2-((4-morpholinophenyl)amino)pyrimidin-4-yl)oxy)methyl)bicyclo [2.2.2]octan-1-yl)acetamide] | < 6.40
CC(=O)N1CCC(COc2nc(Nc3ccc(N4CCOCC4)cc3)ncc2F)C(F)C1 (single isomer, unassigned) [Example 173, 1-(3-fluoro-4-(((5-fluoro-2-((4-morpholinophenyl)amino)pyrimidin-4-yl)oxy)methyl)piper-idin-1-yl)ethan-1-one] | > 7.30
C[C@@H]1CN(c2ccc(Nc3ncc(Cl)c(OCC4CCC(O)CC4)n3)cc2)C[C@H](C)O1 (stereo partly drawn) [Example 120, 4-(((5-chloro-2-((4-((2S,6R)-2,6-dimethylmorpholino)phenyl)amino)pyrimidin-4-yl)oxy)methyl)cyclohexan-1-ol] | > 7.30
CC(=O)N1CCC(COc2nc(Nc3cn(C(C)(C)C#N)nc3C)ncc2F)C(F)C1 (single isomer, unassigned) [Example 176, 2-(4-((4-((1-acetyl-3-fluoropiperidin-4-yl)methoxy)-5-fluoropyrimidin-2-yl)amino)-3-methyl-1H-pyrazol-1-yl)-2-methylpropanenitrile] | 6.40 to 6.70
CC(=O)N1CCC(COc2nc(Nc3cn(C(C)(C)C#N)nc3C)ncc2Cl)C(F)(F)C1 (stereo not drawn) [Example 96, 2-(4-((4-((1-acetyl-3,3-difluoropiperidin-4-yl)methoxy)-5-chloropyrimidin-2-yl)amino)-3-methyl-1H-pyrazol-1-yl)-2-methylpropanenitrile] | > 7.30
CC(=O)N[C@H]1CC[C@H](COc2nc(Nc3cnn(CC(F)(F)F)c3)ncc2F)CC1 [Example 188, N-((1R,4R)-4-(((5-fluoro-2-((1-(2,2,2-trifluoroethyl)-1H-pyrazol-4-yl)amino)pyrimidin-4-yl)oxy)methyl)cyclo-hexyl)acetamide] | > 7.30
FC(F)(F)CN[C@H]1CC[C@H](COc2ccnc(Nc3ccc(N4CCOCC4)cc3)n2)CC1 [Example 104, N-(4-morpholino-phenyl)-4-(((1R,4R)-4-((2,2,2-trifluoroethyl)amino)cyclohexyl)methoxy) pyrimidin-2-amine] | 6.70 to 7.30
CCO[C@H]1CC[C@@H](COc2nc(Nc3cn(C(C)(C)C#N)nc3C)ncc2F)CC1 [Example 277, 2-(4-((4-(((1s,4s)-4-ethoxycyclohexyl)methoxy)-5-fluoropyrimidin-2-yl)amino)-3-methyl-1H-pyrazol-1-yl)-2-methylpropanenitrile] | > 7.30
CC(=O)N[C@H]1CC[C@H](COc2nc(Nc3ccc(N4C5CCC4COC5)cc3)ncc2F)CC1 [Example 181, N-((1R,4R)-4-(((2-((4-(3-oxa-8-azabicyclo[3.2.1]octan-8-yl)phenyl)amino)-5-fluoropyrimidin-4-yl)oxy)methyl)cyclo-hexyl)acetamide] | > 7.30
CNC1(COc2nc(Nc3ccc(N4CCOCC4)cc3)ncc2Cl)CC1 [Example 54, 5-chloro-4-((1-(methylamino)cyclo-propyl)methoxy)-N-(4-morpholinophenyl)py-rimidin-2-amine] | 6.40 to 6.70
CCn1cc(Nc2ncc(F)c(OC[C@H]3CC[C@H](NC(C)=O)CC3)n2)cn1 [Example 184, N-((1R,4R)-4-(((2-((1-ethyl-1H-pyrazol-4-yl)amino)-5-fluoropyrimidin-4-yl)oxy)methyl)cyclo-hexyl)acetamide] | > 7.30
CC(=O)N[C@H]1CC[C@H](COc2nc(Nc3cn(C)nc3C)ncc2F)CC1 [Example 194, N-((1R,4R)-4-(((2-((1,3-dimethyl-1H-pyrazol-4-yl)amino)-5-fluoropyrimidin-4-yl)oxy)methyl)cyclo-hexyl)acetamide] | 6.70 to 7.30
Cc1nn(C(C)(C)C#N)cc1Nc1ncc(Cl)c(OCC2CCC(O)CC2)n1 (stereo not drawn) [Example 121, 2-(4-((5-chloro-4-((4-hydroxycyclohexyl)methoxy)pyrimidin-2-yl)amino)-3-methyl-1H-pyrazol-1-yl)-2-methylpropanenitrile] | > 7.30
O[C@H]1CC[C@H](COc2nc(Nc3cnn(C4COC4)c3)ncc2F)CC1 [Example 227, (1R,4R)-4-(((5-fluoro-2-((1-(oxetan-3-yl)-1H-pyrazol-4-yl)amino)pyrimidin-4-yl)oxy)methyl)cyclohexan-1-ol] | 6.40 to 6.70
Cc1nn(C2CC(C#N)C2)cc1Nc1ncc(Cl)c(OCC2CCNCC2F)n1 (stereo not drawn) [Example 26, 3-(4-((5-chloro-4-((3-fluoropiperidin-4-yl)methoxy)pyrimidin-2-yl)amino)-3-methyl-1H-pyrazol-1-yl)cyclobutane-1-carbonitrile] | 6.70 to 7.30
CNC[C@H]1CC[C@H](COc2ccnc(Nc3ccc(N4CCOCC4)cc3)n2)CC1 [Example 48, 4-(((1R,4R)-4-((methylamino)methyl)cyclohexyl)methoxy)-N-(4-morpholinophenyl)py-rimidin-2-amine] | 6.70 to 7.30
COc1nn(C2CC2)cc1Nc1ncc(F)c(OC[C@H]2CC[C@H](NC(C)=O)CC2)n1 [Example 208, N-((1R,4R)-4-(((2-((1-cyclopropyl-3-methoxy-1H-pyrazol-4-yl)amino)-5-fluoropyrimidin-4-yl)oxy)methyl)cyclo-hexyl)acetamide] | > 7.30
Cc1nn(C(C)(C)C#N)cc1Nc1ncc(Cl)c(OCC2CC3(CNC3)C2)n1 [Example 28, 2-(4-((4-((2-azaspiro[3.3]heptan-6-yl)methoxy)-5-chloropyrimidin-2-yl)amino)-3-methyl-1H-pyrazol-1-yl)-2-methylpropanenitrile] | > 7.30
CC(C)n1cc(Nc2ncc(F)c(OCC34CCC(O)(CC3)CC4)n2)cn1 [Example 256, 4-(((5-fluoro-2-((1-isopropyl-1H-pyrazol-4-yl)amino)pyrimidin-4-yl)oxy)methyl)bicyclo[2.2.2]octan-1-ol] | > 7.30
CN[C@H]1CC[C@H](COc2nc(Nc3cn(C(C)(C)C#N)nc3C)ncc2C)CC1 [Example 44, 2-methyl-2-(3-methyl-4-((5-methyl-4-(((1R,4R)-4-(methylamino)cyclo-hexyl)methoxy)py-rimidin-2-yl)amino)-1H-pyrazol-1-yl)propanenitrile] | > 7.30
CC(=O)N[C@H]1CC[C@H](COc2nc(Nc3ccc(N4C[C@@H](C)O[C@@H](C)C4)cc3)ncc2F)CC1 [Example 83] | > 7.30
O[C@H]1CC[C@H](COc2nc(Nc3cnn(CC(F)(F)F)c3)ncc2F)CC1 [Example 223, (1R,4R)-4-(((5-fluoro-2-((1-(2,2,2-trifluoroethyl)-1H-pyrazol-4-yl)amino)pyrimidin-4-yl)oxy)methyl)cyclohexan-1-ol] | 6.70 to 7.30
CNC[C@H]1CC[C@H](COc2nc(Nc3cnn(C4CC(C#N)C4)c3C)ncc2Cl)CC1 (stereo partly drawn) [Example 50, 3-(4-((5-chloro-4-(((1R,4R)-4-((methylamino)methyl)cyclohexyl)methoxy)pyrimidin-2-yl)amino)-5-methyl-1H-pyrazol-1-yl)cyclobutane-1-carbonitrile] | > 7.30
Cc1nn(C(C)(C)C#N)cc1Nc1ncc(F)c(OCC2CCNCC2F)n1 (single isomer, unassigned) [Example 171, 2-(4-((5-fluoro-4-((3-fluoropiperidin-4-yl)methoxy)pyrimidin-2-yl)amino)-3-methyl-1H-pyrazol-1-yl)-2-methylpropanenitrile] | 6.40 to 6.70
